Entries after “also recorded” stand apart in the source; their conditions may differ.
Legend:
[1] = test system: MCF-7/ADR cells; assay: Subcellular distribution of Adriamycin fluorescence (confocal microscopy); assay type: cell-based, human; conditions: for Adriamycin distribution after addition of agent: MCF-7/ADR, Monensin 5 μM, Bafilomycin A1 500 nM, concanomycin 100 nM, Tamoxifen 10 μM (50 μM in Example 3), verapamil 10 μM, cyclosporin 5 μM
Protocol: Adriamycin can be excited between 350 nm-550 nm and emits between 400 nm-700 nm.
Labeling of Cells with Adriamycin: Cells were loaded with Adriamycin (10 μM) added to the perfusion medium. […] For epi-fluorescence, the cells were excited with 450-490 nm filter and emission was monitored with a 510 nm longpass filter.

[2] = lumenal pH of 6 and an external pH of 8; cited from earlier work
[3] = test system: MCF-7/ADR cells; assay: Cell viability assay of Adriamycin sensitivity (Hoechst 33258 DNA content); conditions: for effect on sensitivity of drug-resistant cells to Adriamycin: MCF-7/ADR (MCF-7adr) cells, agent co-incubated with adriamycin for 6 hours
Protocol: After 6 hours, the media was removed, the cells rinsed, and then fed with fresh media not containing drugs. […] Media was aspirated and the wells rinsed with Hanks Balanced Salt Solution (HBSS, phenol red free). The cells were sonicated in hypotonic media (0.1×HBSS) for 30 seconds. […] Calf thymus DNA was used for calibration.
Cell viability assays: The media was removed 60 hr. after plating the cells and replaced with fresh media supplemented with various concentrations of adriamycin (Calbiochem, CA) and monensin (solubilized in DMF 0.1%) (Sigma, St. Louis). After 6 hr the media was removed, the cells rinsed, and then fed with fresh media not containing drugs. […] Media was aspirated and the wells rinsed with Hanks Balanced Salt Solution (HBSS, phenol red free). The cells were sonicated in hypotonic media (0.1×HBSS) for 30 seconds. […] Calf thymus DNA was used for calibration.
Cell Viability Assays: Cell viability was assayed by plating cells at ˜1000 cells/well in 24 well plates (Falcon) in DME. […] The cells were fed daily for three days and then cell viability was quantified with two independent techniques: an assay of total DNA and an assay of volume of viable cells. […] Calf thymus DNA was used for calibration.
After three days cell viability was assayed.

[4] = test system: isolated microsomes of MCF-7/ADR cells; assay: In vitro acidification of total microsomal preparation (acridine orange quenching); conditions: for rate of dissipation of the pre-existing pH gradient: added 10 minutes after ATP, Bafilomycin A1 100 nM, compared with tamoxifen
Protocol: Acidification of Cellular Microsomes: The acidification of cellular microsomes was assayed spectrophotometrically. Two different approaches were used for assaying acidification: Acidification of the total microsomal preparation using quenching of acridine orange and acidification of the recycling endosomes by monitoring the fluorescence from a microsomal preparation from cells that had previously endocytosed FITC-transferrin.
The homogenate was centrifuged twice for 10 minutes at 3000 g to remove unbroken cells and nuclei. The supernatant was layered over 20 ml of 0.5 M sucrose (20 mM HERES (pH 7.4), 1 mM DTT, 1 mM EDTA, 1×protease inhibitor mix) and 1 ml of 2 M sucrose and centrifuged for one hour at 100,000 g (Beckman Ti60 Rotor). Microsomes are collected at the 0.5 M and 2 M interface.
Acidic vesicles accumulate acridine orange to high concentrations resulting in the self quenching of the dye. This accumulation causes depletion of the acridine orange from the extra-vesicular space, and a decrease of the overall fluorescence of the sample. […] The sample was allowed to equilibrate by stirring for 30 minutes at 25° C. After 5 minutes of recording to establish baseline, 1 mM Tris-ATP was added to begin acidification (100 mM stock, titrated to pH 7.4 with 1 M Tris-base before use).

[5] = test system: MCF-7/ADR cells; assay: Acridine orange labeling of acidic compartments (confocal microscopy); assay type: cell-based, human; conditions: for red-orange acridine orange fluorescence of cytoplasmic organelles after addition of agent: MCF-7/ADR, 30 minutes, Monensin 5 μM, Bafilomycin A1 500 nM, concanomycin 100 nM, Tamoxifen 5 or 10 μM, verapamil 10 μM, cyclosporin A 10 μM
Protocol: Confocal fluorescence imaging of intracellular pH and acidic compartments: Acridine orange (2 μg/ml media; 4 mg/ml stock in water) was added directly to the chambers and the cells were incubated with the dye at 37° C. for 30 minutes. Cells in the presence of acridine orange were then examined at room temperature with an Insight Bilateral Laser Scanning Confocal Microscope (Meridian Instruments, Okemos, Mich.). […] Optical sections of the fluorescent sample were recorded at 0.5 micron intervals. […] The acetoxymethylester derivative of SNAFL-calcein (15 μg/ml) (Molecular Probes, Eugene, Oreg.) (a radiometric fluorescent probe for pH) was added to both MCF-7 and MCF-7adr cells. The ester linked fluorescent probe enters the cell passively where the esters are hydrolyzed by esterases located in the cytoplasm and intracellular vesicles. The SNAFL-calcein is then ionically trapped within the cytoplasm and vesicular compartments. […] These images were then compared to standard curves that were obtained in the following manner. […] Cells treated with monensin were exposed to the drug (10 μg/ml of media) for 30 minutes at 37° C. prior to labeling with SNAFL-calcein as described above. All cells were examined at room temperature.
The green and red emissions were collected using two photomultiplier tubes. […] Green emission was next passed through a 530 nm/30 nm bandpass filter and collected by the on-axis photomultiplier tube. Red emission was passed through a 610 nm longpass filter and collected by the 90° side photomultiplier tube.
Optical sections of the fluorescent samples were recorded at 0.5 micron intervals with a 60×oil immersion objective.

[6] = test system: MCF-7/ADR cells; assay: Organelle-specific pH measurements with targeted SNARF and FITC probes in living cells; assay type: cell-based, human; conditions: MCF-7/ADR cells; SNARF 70 kD dextran; Tamoxifen at 10 μM
Protocol: Organelle-specific pH measurements: The pH was measured in selective cellular compartments by targeting ratiometric pH probes to specific organelles. […] Using a Nikon epifluorescence microscope with a intensified CCD camera, the pH probe FITC was excited alternately at 450 nm and 490 nm and emission recorded with a 520/10 bandpass filter. […] In short, to calibrate the pH for the endosomal system, the chamber was perfused with 150 mM sodium buffers at pH of 5, 6 or 7 containing of monensin (20 μM) and nigericin (10 μM) for 5 minutes before recording the fluorescence. For the pH calibrations of cytosol and nucleoplasm, the cells were incubated in 140 mM potassium buffers at pH 6.0, 6.5, 7.0 and 7.5 containing nigericin (20 μM).
After endocytosis, the transferrin is transported through the endosomes and then recycled back to the surface without passage through the lysosomes.
pH in the lysosomes: The pH in the lysosomes was assayed both with light and electron microscopy. […] The pH was calibrated as described above. […] The cells were incubated one hour at room temperature, washed with several changes of PBS pH 7.4 containing 50 mM NH4Cl. […] The cells were embedded in LR White in gelatin capsules and baked at 60° C. for 24 hours in a vacuum oven, sectioned and incubated overnight at 4° C. with anti-DNP antibodies in 4% FBS, washed and incubated in gold (10 nm) labeled secondary antibodies for 2 hours. They were then stained and visualized under the electron microscope.
Cells were plated on polystyrene plates at 50% confluency. Twenty-four to thirty-six hours later, the medium was aspirated and the cells were covered with 50 μl of DME with SNARF-dextran (10 mg/ml). The cells were quickly scraped off the polystyrene and placed in pre-chilled tubes containing 1 ml DME without serum. The cells were harvested (100 g for 5 minutes), washed twice with pre-chilled DME, and plated on Lab-Tek chambers in DME with serum. The cells were allowed to recover for 24 hours prior to examination on a confocal microscope. The pH was calibrated from SNARF fluorescence as described above.
pH in the nucleus: The nucleoplasmic pH was probed by loading the cytosol with SNARF conjugated to a 10 kD dextran. This dextran is too large to cross cellular membranes, but can enter the nucleoplasm by diffusion across the nuclear pores. Confocal fluorescence microscopy was used to prepare optical sections through the cell allowing the fluorescence intensity of the nucleoplasm and cytoplasm to be quantified. The 10 kD SNARF-dextran was loaded into the cytosol and imaged using the same techniques for the 70 kD SNARF-dextrans (see above).

Structure (SMILES)	rate of dissipation of the pre-existing pH gradient [4]	red-orange acridine orange fluorescence of cytoplasmic organelles after addition of agent [5]	Adriamycin distribution after addition of agent [1]	effect on sensitivity of drug-resistant cells to Adriamycin [3]	also measured
COc1cccc2c1C(=O)c1c(O)c3c(c(O)c1C2=O)C[C@@](O)(C(=O)CO)C[C@@H]3O[C@H]1C[C@H](N)[C@H](O)[C@H](C)O1 [Adriamycin]					time for Adriamycin accumulation to reach a steady-state distribution ([1]; MCF-7 and MCF-7/ADR cells): approximately 60 minutes; accumulation in a liposome [2]: approximately 100 fold; cell death ([3]; 1 μM Adriamycin, absence of Tamoxifen, 6 hours exposure, assayed after three days): less than 20%
CO/C1=C\C(C)=C\[C@@H](C)[C@@H](O)[C@@H](C)C/C(C)=C/C=C/[C@H](OC)[C@@H]([C@@H](C)[C@@H](O)[C@H](C)[C@@]2(O)C[C@@H](O)[C@H](C)[C@@H](C(C)C)O2)OC1=O [Bafilomycin A1]	dissipated the pH gradient at a much slower rate	the punctate red labeling of acidic organelles was lost; also recorded: disappearance of punctate red-orange cytoplasmic fluorescence	redistributed Adriamycin to the nucleoplasm; also recorded: substantially decreased in all cytoplasmic compartments and increased in the nucleoplasm		acidification of pre-treated microsomes ([4]; Tamoxifen 8 μM, Bafilomycin A1 10 nM, monensin concentration not given): blocked acidification; acidification blocked ([4]; at one tenth of 100 nM): 95%
C[C@H]1CCC/C=C/[C@@H]2C[C@H](O)C[C@H]2[C@H](O)/C=C/C(=O)O1 [Brefeldin A]				did not affect drug sensitivity	
CO[C@@H]1C[C@@H](C[C@H]2CC[C@H](C)[C@H]([C@@H](C)C(=O)O)O2)O[C@]2(O[C@](C)([C@H]3CC[C@@](C)([C@@H]4O[C@@H]([C@H]5O[C@@](O)(CO)[C@H](C)C[C@@H]5C)C[C@@H]4C)O3)C[C@H]2C)[C@@H]1C [Nigericin]	significantly faster than tamoxifen			functioned in a similar manner	acridine orange staining of acidic vesicles after treatment ([5]; MCF-7adr (Examples 2, 3), nigericin 7.5 μM, tamoxifen 50 μM): eliminated fluorescent staining of both cytoplasmic vesicles and vesicles within the pericentriolar region; also recorded: immediate loss of orange/red fluorescence
N=C(N)NC(=O)c1nc(Cl)c(N)nc1N [amiloride]				functioned in a similar manner	
COc1ccc(CCN(C)CCCC(C#N)(c2ccc(OC)c(OC)c2)C(C)C)cc1OC (stereo not shown) [verapamil]		loss of the red-orange cytoplasmic fluorescence	shifted Adriamycin from punctate cytoplasmic organelles to a diffuse cytoplasmic and nucleoplasmic distribution		shift of cytosolic pH, more alkaline [6]: no measurable effect on cytosolic pH

Source: patent publication US20020042079A1, “METHODS AND AGENTS FOR MEASURING AND CONTROLLING MULTIDRUG RESISTANCE” (priority 1994, published 2002)
